Measured values reported in US11001820B2, “Delivery of therapeutic agents by a collagen binding protein” (THE BOARD OF TRUSTEES OF THE UNIVERSITY OF ARKANSAS, priority 2011, dated 2021).

How the values were obtained:
[1] = test system: androgenic alopecia; details: long-term (10 years) therapy; cited from earlier work
[2] = Circular dichroism thermal denaturation of collagenous peptides; format: physicochemical; details: triple helix thermostability by [θ]225, 0.3° C./min, 1 mg/ml in water
Protocol: The triple helical conformation and the stability of the collagenous peptides were verified using CD spectroscopy (See FIGS. 3 and 4). CD spectra were recorded with a J-820 CD spectropolarimeter (JASCO Co., Hachioji, Japan) equipped with a Peltier thermo controller, using a 0.5-mm quartz cuvette and connected to a data station for signal averaging. All peptide samples were dissolved in water (1 mg/ml), and stored at 4° C. for 24 h. The spectra are reported in terms of ellipticity units per mole of peptide residues [θ]mrw. Thermostability of the triple helix was monitored by the [θ]225 values of each peptide with increasing temperature at the rate of 0.3° C./min.

[3] = test system: C57/BL6J mice; test: Depilation alopecia (waxing); format: in vivo
Text: The agonist PTH-CBD appears to increase hair growth by increasing the number of anagen phase hair follicles. As such, there is no reason to believe that hair growth effects should be limited to the chemotherapy model. We therefore tested both PTH-CBD and antagonist compound, PTH(7-33)-CBD, after removing hair from C57/BL6J mice by waxing (FIG. 18). […] Thus, it appears that agonist therapy is acting to promote more rapid regrowth of hair by promoting more rapid transition to the anagen phase, while the antagonist inhibited hair regrowth by blocking this transition.

[4] = test system: ovarectomized rat; test: Ovarectomized aged rats, single dose, sacrifice 6 months after therapy; format: in vivo; details: 6 months after single dose 320 mcg/kg
Protocol: In this experiment, rats had their ovaries surgically removed at age 3 months. At age 9 months, rats were injected with either a single dose of PTH-CBD (320 mcg/kg) or vehicle control. Animals were sacrificed 6 months after therapy (age 15 months). […] Serum calcium was measured and there were no differences between groups (Vehicle: 13.5+/−1.1 vs. PTH-CBD: 14.3+/−1.1 mg/dl, NS). […] These findings indicate that a single injection of PTH-CBD can provide long-term suppression of endogenous PTH production, preventing the normal rise seen with age in the ovarectomized rat model, and thus may serve as a therapy for hyperparathyroidism.

[5] = Tissue distribution of 35S-labelled PTH-CBD by whole-body autoradiography; format: in vivo, mice; details: subcutaneous injection, 1 hour and 12 hours
Protocol: Tissue distribution was assessed by administering ^35S-labelled PTH-CBD via subcutaneous injection, followed by whole mount frozen and whole-body autoradiography. PTH-CBD with a phosphorylation site between PTH(1-33) and the CBD was purified, activated and labeled with […] as described previously. Tamai et al. (2003) Infect Immun. 71:5371-5375. Approximately 10.8 mcg of ^35S-PTH-CBD (122 kcm/mcg) was injected subcutaneously in 7 week-old mice (32-35 g). Mice were sacrificed at 1 hour or 12 hours post-injection, and then frozen in dry ice-acetone. Frozen sections ([…]) were prepared with an autocryotome, dried at −20° C., and exposed to an image plate for 4 weeks. There appeared to be an initial distribution of ^35S-PTH-CBD to a broad area of skin around the site of injection, followed by a rapid redistribution to the skin of the entire animal, as well as to several other tissues (i.e. bone, intestine, bladder) (FIG. 11).

[6] = test system: engrafted C3H/Hej mouse; test: Alopecia areata model; format: in vivo
Text: Alopecia Areata is a disease of patchy hair loss due to autoimmune destruction of the hair follicles. We tested the efficacy of PTH-CBD in promoting regrowth of hair in an animal model of alopecia areata, the engrafted C3H/Hej mouse. In this model, hair loss develops variably over the first 2 months of life. Shown in FIG. 19 is the results of a single dose of PTH-CBD (320 mcg/kg subcutaneous) administered into the engrafted site, the center of the back, where there was maximal hair loss. Compared to vehicle control animals, which continued to lose hair at this site, animals receiving PTH-CBD began to show regrowth of hair within the next 1-4 days.

[7] = test system: mice; test: Chemotherapy-induced alopecia without depilation; format: in vivo
Protocol: While the depilated model of chemotherapy-induced alopecia provides a uniform model for comparison of drug effects, the depilation process is known to cause hair follicle injury, and may alter the response of the animals to the PTH-CBD administration. We therefore tested the effects of PTH-CBD in another model of chemotherapy-induced alopecia, where the animals were given 3 courses of cyclophosphamide therapy (50 mg/kg/wk), similar to the usual manner in which cancer patients might be treated. In this model, it takes much longer (4-6 months) for alopecia to develop.
In a second study, we compared the effects of PTH-CBD when given prophylactically, at the time of the first cycle of chemotherapy, vs. therapeutically, after the hair loss had developed. […] This is evident both visually and quantitatively in FIG. 17, using the same grey scale analysis used in our dose-response study.

[8] = test system: C57BL/6J mice; test: Chemotherapy-induced alopecia (cyclophosphamide) in depilated mice; format: in vivo
Protocol: We compared efficacy of CBD linked PTH agonists and antagonists in chemotherapy-induced alopecia, utilizing an experimental design published by Peters, et al., for non-CBD linked PTH compounds. Peters, et al. (2001) J Invest Dermatol 117:173-178. C57BL/6J mice (Jackson Laboratories, Bar Harbor, Me.) were depilated to synchronize the hair follicles, and cyclophosphamide (CYP, 150 mg/kg) was administered on day 9 to maximize the chemotherapy-induced damage. The agonist (PTH-CBD) and the antagonist (PTH(7-33)-CBD) were administered 2 days prior to chemotherapy, and given the long-term retention of the compounds in the skin, we administered only a single dose to cover the timing of the multiple injections of PTH agonist and antagonist in the study by Peters, et. al. The administered dose of CBD-linked compounds (320 mcg/kg) is well tolerated in mice. Ponnapakkam et al. (2011) Calcif 88:511-520. […].
We followed these studies by comparing the effects of different doses of PTH-CBD in chemotherapy-induced alopecia. In these studies, we applied the injections more distally on the back and applied a gray-scale analysis to quantify the amount of hair growth. Injecting more distally in the back allows us to compare regrowth of hair after PTH-CBD treatment with less interference from the normal hair regrowth, which normally proceeds from head to tail in mice.

Compound: CC(C)(C)NC(=O)[C@H]1CC[C@H]2[C@@H]3CC[C@H]4NC(=O)C=C[C@]4(C)[C@H]3CC[C@]12C [Finasteride]
- response rates [1]: around 50%

Compound: (POG)4POA(POG)5
- Melting temperatures (Tm) [2]: 29 °C

Compound: (POG)4POA(POG)5C-PROXYL
- Melting temperatures (Tm) [2]: 30 °C

Compound: PROXYL-(POG)3POA(POG)6
- Melting temperatures (Tm) [2]: 28 °C

Compound: PROXYL-(POG)4POA(POG)5
- Melting temperatures (Tm) [2]: 29 °C

Compound: PROXYL-(POG)5POA(POG)4
- Melting temperatures (Tm) [2]: 28 °C

Compound: PROXYL-(POG)6POA(POG)3
- Melting temperatures (Tm) [2]: 27 °C

Compound: PTH-CBD: first 33 amino acids of PTH linked directly to the collagen binding domain (SEQ ID NO: 1)
- anagen eruption ([3]; after waxing, vehicle day 9): 7 days
- regrowth of hair ([3]; end of study (day 18)): more complete regrowth of hair
- Human intact PTH levels (serum levels of PTH-CBD) [4]: undetectable
- Rat intact PTH levels (endogenous PTH production) [4]: suppressed the normal increase in endogenous PTH levels
- serum calcium ([4]; NS vs vehicle): 14.3 ± 1.1 mg/dL
- tissue distribution [5]: distribution and retention to skin
- duration of response ([6]; single dose 320 mcg/kg): sustained during the 2 month course
- time to regrowth of hair ([6]; single dose 320 mcg/kg subcutaneous into engrafted site): 1 to 4 days
- effect on hair, prophylactic vs. therapeutic dosing ([7]; grey scale analysis): effective in both instances
- hair loss ([7]; single dose 320 mcg/kg subcutaneous prior to first of 3 cyclophosphamide courses): did not develop hair loss
- hair regrowth, gray-scale analysis ([8]; 100, 320, 1000 mcg/kg): dose-dependent effect
- hair follicle histology ([8]; H&E, day 36, 320 mcg/kg): deeper rooting and reduced melanocyte clumping
- excess hair length or growth ([8]; body, ears and tail): no evidence of excess hair length
- Counts of anagen VI hair follicles per high-powered field ([8]; day 36, 320 mcg/kg): higher number of hair follicles
- adverse effects ([8]; mouse, in vivo): no evidence of adverse effects
- serum calcium ([8]; mouse, in vivo): no effect
- hair growth (photodocumentation) ([8]; single dose 320 mcg/kg, 2 days prior to CYP, day 36): far more effective at stimulating hair growth than was the antagonist

Compound: ^11PROXYL-(POG)3PCG(POG)4
- Melting temperatures (Tm) [2]: 28 °C
